Where a name gives a salt, the structure may show the parent alone. Read-outs that look alike come from different tables or passages of the source.
Experiments:
[1] = test system: T29Kt1 cells; experiment: cells; settings: Homo sapiens
[2] = test system: H1299 cells; experiment: Cell viability, H1299 lung cancer cells; assay type: cell-based, human; settings: Homo sapiens, NCI-H1299; h1299, Lung; read-out: IC50 (−LogM) (converted)
[3] = test system: Capanc-1; experiment: Cell viability, Capanc-1 pancreatic cancer cells; assay type: cell-based, human; settings: Homo sapiens, Pancreatic cancer cell; capanc1, Pancrease; read-out: IC50 (−LogM) (converted)
[4] = test system: CT116P53; experiment: Cell viability, CT116P53 colon cancer cells; assay type: cell-based, human; settings: Homo sapiens; CT116P53, Colon; read-out: IC50 (−LogM) (converted)
[5] = test system: H2122; experiment: Cell viability, H2122 lung cancer cells; assay type: cell-based, human; settings: Homo sapiens, NCI-H2122; H2122, Lung; read-out: IC50 (−LogM) (converted)
[6] = test system: Hey; experiment: Cell viability, Hey ovary cancer cells; assay type: cell-based
[7] = test system: Hct116; experiment: Cell viability, Hct116 colon cancer cells; assay type: cell-based, human; settings: Homo sapiens, HCT-116; Hct116, Colon; read-out: IC50 (−LogM) (converted)
[8] = test system: A549CK8; experiment: Cell viability, A549CK8 lung cancer cells; assay type: cell-based, human; settings: Homo sapiens; A549CK8, Lung; read-out: IC50 (−LogM) (converted)
[9] = test system: H1395; experiment: Cell viability, H1395 lung cancer cells; assay type: cell-based, human; settings: Homo sapiens, NCI-H1395; H1395, Lung; read-out: IC50 (−LogM) (converted)
[10] = test system: AsPC-1; experiment: Cell viability, AsPC-1 pancreatic cancer cells; assay type: cell-based, human; settings: Homo sapiens; ASPC1, Pancrease; read-out: IC50 (−LogM) (converted)
[11] = test system: DLD1; experiment: Cell viability, DLD1 colon cancer cells; assay type: cell-based, human; settings: Homo sapiens, DLD-1; DLD1, Colon; read-out: IC50 (−LogM) (converted)
[12] = test system: Ovcar3; experiment: Cell viability, Ovcar3 ovary cancer cells; assay type: cell-based; settings: Homo sapiens, OVCAR-3
[13] = test system: H23; experiment: Cell viability, H23 lung cancer cells; assay type: cell-based, human; settings: Homo sapiens, NCI-H23; H23, Lung; read-out: IC50 (−LogM) (converted)
[14] = test system: H1933; experiment: Cell viability, H1933 lung cancer cells; assay type: cell-based, human; settings: Homo sapiens; H1933, Lung; read-out: IC50 (−LogM) (converted)
[15] = test system: miapac; experiment: Cell viability, miapac pancreatic cancer cells; assay type: cell-based, human; settings: Homo sapiens, Pancreatic cancer cell; miapac, Pancrease; read-out: IC50 (−LogM) (converted)
[16] = test system: Heb46; experiment: Cell viability, Heb46 kidney cells; assay type: cell-based
[17] = test system: H226B cells; experiment: Cell viability, H226B lung cancer cells; assay type: cell-based, human; settings: Homo sapiens, H226B, Lung, read-out: IC50 (−LogM) (converted)
[18] = test system: Sw620; experiment: Cell viability, Sw620 colon cancer cells; assay type: cell-based, human; settings: Homo sapiens, SW-620; Sw620, Colon; read-out: IC50 (−LogM) (converted)
[19] = test system: H460 cells; experiment: cells; settings: Homo sapiens
[20] = test system: Heb44; experiment: Cell viability, Heb44 kidney cells; assay type: cell-based
[21] = test system: HKE3; experiment: Cell viability, HKE3 colon cancer cells; assay type: cell-based, human; settings: Homo sapiens, HKE3, Colon, read-out: IC50 (−LogM) (converted)
[22] = test system: H2009; experiment: Cell viability, H2009 lung cancer cells; assay type: cell-based, human; settings: Homo sapiens, NCI-H2009; H2009, Lung; read-out: IC50 (−LogM) (converted)
[23] = test system: T29 cells; experiment: cells; settings: Homo sapiens, T29, read-out: IC50 in T29 cells
[24] = test system: Ovcar443; experiment: Cell viability, Ovcar443 ovary cancer cells; assay type: cell-based
[25] = test system: Ovca429; experiment: Cell viability, Ovca429 ovary cancer cells; assay type: cell-based
[26] = test system: A549 cells; experiment: Cell viability, A549 lung cancer cells; assay type: cell-based, human; settings: Homo sapiens; A549, Lung; read-out: IC50 (−LogM) (converted)
[27] = test system: SKOV3; experiment: Cell viability, SKOV3 ovary cancer cells; assay type: cell-based; settings: Homo sapiens, SK-OV-3
[28] = test system: H2087; experiment: Cell viability, H2087 lung cancer cells; assay type: cell-based, human; settings: Homo sapiens, NCI-H2087; H2087, Lung; read-out: IC50 (−LogM) (converted)
[29] = test system: H322 cells; experiment: Cell viability, H322 lung cancer cells; assay type: cell-based, human; settings: Homo sapiens, NCI-H322; H322, Lung; read-out: IC50 (−LogM) (converted)
[30] = T29Kt1, read-out: IC50 in T29k cells, Table 1
[31] = NCI-H460, read-out: IC50 (−LogM), H460, Lung (converted)
[32] = NCI-H460, read-out: IC50 in H460 cells, Table 1

O=[N+]([O-])c1ccc(Cn2cc(CO)c3ccccc32)cc1 [Oncrasin K71, 1H-Indole-3-methanol, 1-[(4-nitrophenyl)methyl]-]
IC50 [1, 30]: 0.158 µM
IC50 [2]: 10 µM
IC50 [3]: 0.126 µM
IC50 [4]: < 31.6 µM
IC50 [5]: 3160 nM
IC50 [6]: 31.6 µM
IC50 [7]: 3160 nM
IC50 [8]: 7.94 µM
IC50 [9]: < 31.6 µM
IC50 [10]: 10 µM
IC50 [11]: < 31.6 µM
IC50 [12]: 2510 nM
IC50 [13]: 31.6 µM
IC50 [14]: 31.6 µM
IC50 [15]: < 31.6 µM
IC50 [16]: 3980 nM
IC50 ([17]; first H226B line): 316 nM
IC50 ([17]; second H226B line): 1580 nM
IC50 [18]: 31.6 µM
IC50 [19, 31]: 79.4 nM
IC50 [19, 32]: 79.4 nM
IC50 [20]: 158 nM
IC50 ([21]; first HKE3 line): 398 nM
IC50 ([21]; second HKE3 line): 200 nM
IC50 [22]: < 31.6 µM

CC(C)(C)OC(=O)C1=C(N)N(Cc2ccccc2)C2(C)C=CC(=O)C=C12 (centres unmarked) [Oncrasin K041, tert-butyl 2-amino-1-benzyl-7a-methyl-5-oxo-indole-3-carboxylate]
IC50 [1, 30]: 5.01 µM
IC50 [23]: 5.01 µM

OCn1cc(Cc2cc(C(F)(F)F)cc(C(F)(F)F)c2)c2ccccc21 [Oncrasin K77]
IC50 [1, 30]: 7.94 µM
IC50 [23]: 6.31 µM
IC50 [19, 32]: 7940 nM

O=Cc1cn(Cc2cc(C(F)(F)F)cc(C(F)(F)F)c2)c2ccccc12 [Oncrasin K76]
IC50 [1, 30]: 3.98 µM
IC50 [23]: 6.31 µM
IC50 [19, 32]: 1260 nM

OCc1cn(Cc2ccccc2Cl)c2ccccc12 [Oncrasin K006, [1-(2-chlorobenzyl)-1H-indol-3-yl]methanol]
IC50 [1, 30]: 2.51 µM
IC50 [2]: 10 µM
IC50 [3]: 12.6 µM
IC50 [24]: 7.94 µM
IC50 [4]: < 31.6 µM
IC50 [5]: 3980 nM
IC50 [6]: 31.6 µM
IC50 [25]: 10 µM
IC50 [7]: 501 nM
IC50 [8]: 3.98 µM
IC50 [9]: 31.6 µM
IC50 [10]: 3.98 µM
IC50 [26]: 12.6 µM
IC50 [27]: 3.98 µM
IC50 [11]: < 31.6 µM
IC50 [12]: 631 nM
IC50 [13]: 25.1 µM
IC50 [14]: 15.8 µM
IC50 [15]: < 31.6 µM
IC50 [28]: 25.1 µM
IC50 [16]: 2000 nM
IC50 [29]: 31.6 µM
IC50 ([17]; first H226B line): 2.51 nM
IC50 ([17]; second H226B line): 39.8 nM
IC50 [18]: 10 µM
IC50 [19, 31]: 100 nM
IC50 [19, 32]: 100 nM
IC50 [20]: 10 nM
IC50 ([21]; first HKE3 line): 126 nM
IC50 ([21]; second HKE3 line): 251 nM
IC50 [22]: 31.6 µM

COC(=O)c1c(C)n(Cc2cccc3ccccc23)c2ccc(O)cc12 [Oncrasin K011, methyl 5-hydroxy-2-methyl-1-(1-naphthylmethyl)-1H-indole-3-carboxylate]
IC50 [1, 30]: 3.16 µM
IC50 [23]: 3.16 µM
IC50 [19, 32]: 1580 nM

COc1ccc2c(c1)c(CCN)c(C)n2Cc1ccccc1 [Oncrasin K005, [2-(1-benzyl-5-methoxy-2-methyl-1H-indol-3-yl)ethyl]amine hydrochloride]
IC50 ([1]; T29Kt1, read-out: IC50 in T29k cells): 15.8 µM
IC50 [23]: 15.8 µM
IC50 ([19]; NCI-H460, read-out: IC50 in H460 cells): 6310 nM

OCc1cn(Cc2ccc(Cl)c(Cl)c2)c2ccccc12 [Oncrasin K049, [1-(3,4-dichlorobenzyl)-1H-indol-3-yl]methanol]
IC50 [1, 30]: 0.316 µM
IC50 [2]: 10 µM
IC50 [3]: 12.6 µM
IC50 [24]: 10 µM
IC50 [4]: < 31.6 µM
IC50 [5]: 316 nM
IC50 [25]: 7.94 µM
IC50 [7]: 10 nM
IC50 [8]: 6.31 µM
IC50 [9]: 15.8 µM
IC50 [10]: 10 µM
IC50 [26]: 10 µM
IC50 [27]: 3.16 µM
IC50 [11]: < 31.6 µM
IC50 [12]: 10 nM
IC50 [13]: 15.8 µM
IC50 [14]: 100 µM
IC50 [15]: < 31.6 µM
IC50 [28]: 7.94 µM
IC50 [16]: 31.6 nM
IC50 [29]: 10 µM
IC50 ([17]; first H226B line): 2.51 nM
IC50 ([17]; second H226B line): 3.16 nM
IC50 [19, 31]: 31.6 nM
IC50 [19, 32]: 31.6 nM
IC50 [20]: 10 nM
IC50 ([21]; first HKE3 line): 2.51 nM
IC50 ([21]; second HKE3 line): 3.16 nM
IC50 [22]: 10 µM

O=[N+]([O-])c1cccc(Cn2cc(CO)c3ccccc32)c1 [Oncrasin K69, 1H-Indole-3-methanol, 1-[(3-nitrophenyl)methyl]-]
IC50 [1, 30]: 0.398 µM
IC50 [3]: 31.6 µM
IC50 [4]: < 31.6 µM
IC50 [5]: 2000 nM
IC50 [6]: < 31.6 µM
IC50 [25]: 31.6 µM
IC50 [7]: 316 nM
IC50 [8]: 1.26 µM
IC50 [9]: < 31.6 µM
IC50 [10]: 7.94 µM
IC50 [27]: 3.16 µM
IC50 [11]: < 31.6 µM
IC50 [12]: 251 nM
IC50 [14]: < 31.6 µM
IC50 [15]: < 31.6 µM
IC50 [28]: 31.6 µM
IC50 [16]: 316 nM
IC50 ([17]; first H226B line): 31.6 nM
IC50 ([17]; second H226B line): 100 nM
IC50 [18]: 31.6 µM
IC50 [19, 31]: 39.8 nM
IC50 [19, 32]: 39.8 nM
IC50 [20]: 79.4 nM
IC50 ([21]; first HKE3 line): 79.4 nM
IC50 ([21]; second HKE3 line): 1000 nM
IC50 [22]: < 31.6 µM

Cc1ccc(Cn2cc(C=O)c3ccccc32)cc1 [Oncrasin K66, 1H-Indole-3-carboxaldehyde, 1-[(4-methylphenyl)methyl]-]
IC50 [1, 30]: 3.98 µM
IC50 [23]: 31.6 µM
IC50 [19, 32]: 63.1 nM
